Patent publication US5073563A, “Alkoxycoumarins substituted by a heterocyclic radical, their preparation and therapeutic agents containing these compounds” (BASF Aktiengesellschaft, priority 1988, dated 1991)

How the values were obtained:
MAO B = biological target: T1, MAO B (Rattus norvegicus, UniProt P19643); assay: MAO B inhibition in dilute rat brain homogenate (14C substrate, 20 min at 37° C); format: biochemical; conditions: for IC50 ratio MAO A / MAO B: quotient of IC50 MAO A and IC50 MAO B (selectivity for MAO B), 20 min; for IC50: rat brain homogenate, 14C-phenylethylamine or 14C-tryptamine 0.4 μmol/l, 20 minutes at 37° C, logit-log regression
T1 construct: determined in dilute rat brain homogenate; from tissue; host or cells: rat brain homogenate
T1 sequence (P19643 1-520): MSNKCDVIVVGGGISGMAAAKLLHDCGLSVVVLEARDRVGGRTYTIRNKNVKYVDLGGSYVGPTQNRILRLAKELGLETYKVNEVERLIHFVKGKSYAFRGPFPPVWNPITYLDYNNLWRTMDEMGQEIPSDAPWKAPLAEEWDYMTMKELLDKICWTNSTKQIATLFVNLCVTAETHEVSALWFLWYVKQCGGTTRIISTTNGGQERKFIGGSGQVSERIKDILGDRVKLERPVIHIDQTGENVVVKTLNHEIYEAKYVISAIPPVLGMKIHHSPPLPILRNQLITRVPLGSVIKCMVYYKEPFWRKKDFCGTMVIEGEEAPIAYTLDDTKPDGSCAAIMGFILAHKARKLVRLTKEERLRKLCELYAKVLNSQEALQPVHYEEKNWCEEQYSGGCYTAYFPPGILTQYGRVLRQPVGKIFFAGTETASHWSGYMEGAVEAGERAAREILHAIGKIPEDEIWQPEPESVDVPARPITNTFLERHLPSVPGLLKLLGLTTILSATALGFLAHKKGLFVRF
Experimental: (§1) The MAO-inhibiting activity of the novel compounds can be determined using standard methods. […] The mixture was incubated for 20 minutes at 37° C.
(§2) The blank value was determined in similar mixtures with an incubation time of t=0 min.
(§3) From the inhibitory values determined at the various inhibitor concentrations against a control, the mean inhibitory concentration (IC50) was calculated by linear regression following logit-log transformation.

MAO A = biological target: T2, MAO A (Rattus norvegicus, UniProt P21396); assay: MAO A inhibition in dilute rat brain homogenate (14C substrate, 20 min at 37° C); format: biochemical; conditions: 14C-phenylethylamine or 14C-tryptamine 0.4 μmol/l, logit-log regression
T2 construct: determined in dilute rat brain homogenate; from tissue; host or cells: rat brain homogenate
T2 sequence (P21396 1-526): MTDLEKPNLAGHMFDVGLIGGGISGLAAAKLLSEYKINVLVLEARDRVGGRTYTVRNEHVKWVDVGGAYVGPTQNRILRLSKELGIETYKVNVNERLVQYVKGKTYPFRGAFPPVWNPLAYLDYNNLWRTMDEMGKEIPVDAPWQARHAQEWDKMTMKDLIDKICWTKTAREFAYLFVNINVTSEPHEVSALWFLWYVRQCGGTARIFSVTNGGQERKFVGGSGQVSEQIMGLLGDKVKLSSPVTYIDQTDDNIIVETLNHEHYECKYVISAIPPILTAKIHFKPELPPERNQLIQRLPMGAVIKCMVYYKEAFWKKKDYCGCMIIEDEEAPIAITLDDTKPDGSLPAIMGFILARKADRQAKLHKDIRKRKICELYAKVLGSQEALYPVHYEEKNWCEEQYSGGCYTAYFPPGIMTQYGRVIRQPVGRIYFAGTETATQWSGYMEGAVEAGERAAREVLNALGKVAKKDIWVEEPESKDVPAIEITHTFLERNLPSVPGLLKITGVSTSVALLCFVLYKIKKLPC
Experimental: as §1, §2, §3

Structure (SMILES) | IC50 ratio MAO A / MAO B (MAO B) | IC50 (MAO B) [µM] | IC50 (MAO A) [µM]
Cc1nnc(COc2ccc3c(C)c(C)c(=O)oc3c2)o1 [Example 1, 3,4-Dimethyl-7-(2-methyl-1,3,4-oxadiazol-5-yl)-methoxycoumarin] | 370 | – | –
Cc1nnc(COc2ccc3c(C)c(C)c(=O)oc3c2)s1 [Example 2, 3,4-Dimethyl-7-(2-methyl-1,3,4-thiadiazol-5-yl)-methoxycoumarin] | 1200 | 0.003 | 3.6
Cc1cc(COc2ccc3c(C)c(C)c(=O)oc3c2)on1 [Example 3, 3,4-Dimethyl-7-(3-methylisoxazol-5-yl)-methoxycoumarin] | 710 | 0.0021 | 1.5
CCCc1cc(COc2ccc3c(C)c(C)c(=O)oc3c2)on1 [Example 4, 3,4-Dimethyl-7-(3-n-propylisoxazol-5-yl)-methoxycoumarin] | ~ 5900 | 0.0017 | ~10
COCc1cc(COc2ccc3c(C)c(C)c(=O)oc3c2)on1 [Example 6, 7-(3-Methoxymethylisoxazol-5-yl)-methoxy-3,4-dimethylcoumarin] | ~ 2200 | 0.0046 | ~10
CCc1nnc(COc2ccc3c(C)c(C)c(=O)oc3c2)o1 [Example 7, 7-(2-Ethyl-1,3,4-oxadiazol-5-yl)-methoxy-3,4-dimethylcoumarin] | ~ 900 | 0.011 | ~10
Cc1c(Cl)c(=O)oc2cc(OCc3csc(C4CC4)n3)c(Cl)cc12 [Example 10, 3,6-Dichloro-4-methyl-7-(2-cyclopropylthiazol-4-yl)-methoxycoumarin] | > 4500 | 0.0022 | > 10
Cc1nnc(COc2ccc3cc(C)c(=O)oc3c2)s1 [Example 13, 3-Methyl-7-(2-methyl-1,3,4-thiadiazol-5-yl)-methoxycoumarin] | > 667 | 0.015 | > 10
Cc1c(C)c2ccc(OCC3COc4ccccc4O3)cc2oc1=O (stereo not drawn) [Example 21, 7-(Benzodioxan-2-yl)-methoxy-3,4-dimethylcoumarin] | ~ 1300 | 0.0077 | ~10
Cc1c(C)c2ccc(OCc3coc(Cc4ccccc4)c3)cc2oc1=O [Example 22, 7-(2-Benzylfuran-4-yl)-methoxy-3,4-dimethylcoumarin] | > 6250 | 0.0016 | > 10
Cc1nc(COc2ccc3c(C)c(C)c(=O)oc3c2)cs1 [Example 24, 3,4-Dimethyl-7-(2-methylthiazol-4-yl)-methoxycoumarin] | ~ 3300 | 0.003 | ~10
Cc1c(C)c2ccc(OCc3coc(Cc4cccc(Cl)c4)c3)cc2oc1=O [Example 25, 7-[2-(3-Chlorobenzyl)-furan-4-yl]-methoxy-3,4-dimethylcoumarin] | > 590 | 0.017 | > 10
Cc1c(C)c2ccc(OCc3nc(C(C)C)no3)cc2oc1=O [Example 26, 7-(3-Iospropyl-1,2,4-oxadiazol-5-yl)-methoxy-3,4-dimethylcoumarin] | > 7700 | 0.0013 | –
Cc1c(C)c2ccc(OCc3cc(C(C)C)n(C)n3)cc2oc1=O [Example 29, 7-(5-Isopropyl-1-methylpyrazol-3-yl)-methoxy-3,4-dimethylcoumarin] | > 4500 | 0.0022 | > 10
Cc1nnc(COc2ccc3c(C)c(Cl)c(=O)oc3c2)s1 [Example 30, 3-Chloro-4-methyl-7-(2-methyl-1,3,4-thiadiazol-5-yl)-methoxycoumarin] | > 1700 | 0.0057 | > 10
Cc1nnc(COc2ccc3c4c(c(=O)oc3c2)CCCC4)s1 [Example 32, 3,4-Tetramethylen-7-(2-methyl-1,3,4-thiadiazol-5-yl)-methoxycoumarin] | > 1400 | 0.0071 | > 10
Cc1c(C)c2ccc(OCc3cc(C(C)C)no3)cc2oc1=O [Example 33, 7-(3-Isopropylisoxazol-5-yl)-methoxy-3,4-dimethylcoumarin] | ~ 8200 | 0.00073 | ~6

Second part, the molecule after the results:

IC50 ratio MAO A / MAO B (MAO B) | IC50 (MAO B) [µM] | IC50 (MAO A) [µM] | Structure (SMILES)
~ 4500 | 0.0022 | ~10 | Cc1c(C)c2ccc(OCc3cc(CC(C)C)no3)cc2oc1=O [Example 34, 7-(3-Isobutylisoxazol-5-yl)-methoxy-3,4-dimethylcoumarin]
> 11000 | 0.00092 | > 10 | Cc1c(C)c2ccc(OCc3cc(C(C)(C)C)no3)cc2oc1=O [Example 35, 7-(3-tert-Butylisoxazol-5-yl)-methoxy-3,4-dimethylcoumarin]
680 | 0.00051 | 0.35 | Cc1ccc(COc2ccc3c(C)c(C)c(=O)oc3c2)s1 [Example 42, 3,4-Dimethyl-7-(2-methylthiophen-5-yl)-methoxycoumarin]
~ 5800 | 0.0012 | ~7 | Cc1c(C)c2ccc(OCc3nc(C4CC4)no3)cc2oc1=O [Example 44, 3,4-Dimethyl-7-(3-cyclopropyl-1,2,4-oxadiazol-5-yl)-methoxycoumarin]
450 | 0.00051 | 0.23 | Cc1ccsc1COc1ccc2c(C)c(C)c(=O)oc2c1 [Example 45, 3,4-Dimethyl-7-(3-methylthiophen-2-yl)-methoxycoumarin]
~ 930 | 0.0043 | ~4 | Cc1noc(COc2ccc3c(C)c(C)c(=O)oc3c2)n1 [Example 50, 3,4-Dimethyl-7-(3-methyl-1,2,4-oxadiazol-5-yl)-methoxycoumarin]
> 12500 | 0.0008 | > 10 | Cc1c(C)c2ccc(OCc3cc(C4CC4)no3)cc2oc1=O [Example 51, 7-(3-Cyclopropylisoxazol-5-yl)-methoxy-3,4-dimethylcoumarin]
> 6700 | 0.0015 | > 10 | Cc1c(Cl)c(=O)oc2cc(OCc3cc(C(C)C)n(C)n3)ccc12 [Example 54, 3-Chloro-7-(5-isopropyl-1-methylpyrazol-3yl)-methoxy-4-methylcoumarin]
> 1000 | 0.01 | > 10 | CC(C)c1cc(COc2ccc3c4c(c(=O)oc3c2)CCCC4)nn1C [Example 55, 7-(5-Isopropyl-1-methylpyrazol-3-yl)-methoxy-3,4-tetramethylenecoumarin]
~ 8300 | 0.00084 | ~7 | Cc1c(C)c2ccc(OCc3cc(C4CC4)on3)cc2oc1=O [Example 58, 7-(5-Cyclopropylisoxazol-3-yl)-methoxy-3,4-dimethylcoumarin]
> 1100 | 0.0019 | > 10 | Cc1c(C)c2ccc(OCc3cc(C4CC4)n(C)n3)cc2oc1=O [Example 61, 7-(5-Cyclopropyl-1-methylpyrazol-3-yl)-methoxy-3,4-dimethylcoumarin]
> 1300 | 0.0075 | > 10 | CCOc1nnc(COc2ccc3c(C)c(C)c(=O)oc3c2)s1 [Example 62, 7-(2-Ethoxy-1,3,4-thiadiazol-5-yl)-methoxy-3,4-dimethylcoumarin]
